Measurements reported in PubChem BioAssay (NCI).
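1) Cells in 96-well plates. 2) Compound, 48 h, 5 concentrations. 3) Linear interpolation between surrounding doses. 4) Unreached endpoint = highest concentration. TGI denotes the concentration required for complete inhibition of growth.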

Experiments:
Assay in all cases: growth of human tumour cells (NCI), 48 h
K-562 leukemia = tested on: K-562 leukemia
LOX IMVI melanoma = tested on: LOX IMVI melanoma
MOLT-4 leukemia = tested on: MOLT-4 leukemia
SN12C renal = tested on: SN12C renal
RPMI-8226 leukemia = tested on: RPMI-8226 leukemia
HOP-92 NSCLC = tested on: HOP-92 NSCLC
HCT-116 colon = tested on: HCT-116 colon
SR leukemia = tested on: SR leukemia
786-0 renal = tested on: 786-0 renal
CAKI-1 renal = tested on: CAKI-1 renal
UO-31 renal = tested on: UO-31 renal
UACC-257 melanoma = tested on: UACC-257 melanoma
A498 renal = tested on: A498 renal
A549 NSCLC = tested on: A549 NSCLC

COc1ccc2c3c(n(Cc4ccccc4)c(=O)c2c1)-c1cc(OC)c(OC)cc1C3C (configuration not stated)
TGI (K-562 leukemia): > 100 µM
TGI (LOX IMVI melanoma): > 100 µM
TGI (MOLT-4 leukemia): > 100 µM
TGI (SN12C renal): > 100 µM
TGI (RPMI-8226 leukemia): > 100 µM
TGI (HOP-92 NSCLC): 42.6 µM
TGI (HCT-116 colon): > 100 µM
TGI (SR leukemia): > 100 µM
TGI (786-0 renal): 27.7 µM
TGI (CAKI-1 renal): > 100 µM
TGI (UO-31 renal): > 100 µM
TGI (UACC-257 melanoma): > 100 µM
TGI (A498 renal): 97.8 µM
TGI (A549 NSCLC): > 100 µM

CC1(C)CC(=O)C2=C(C1)S/C(=C1/SC3=C(S1)C(=O)CC(C)(C)C3)S2
TGI (K-562 leukemia): > 251 µM
TGI (LOX IMVI melanoma): > 251 µM
TGI (MOLT-4 leukemia): > 251 µM
TGI (SN12C renal): > 251 µM
TGI (RPMI-8226 leukemia): > 251 µM
TGI (HOP-92 NSCLC): > 251 µM
TGI (HCT-116 colon): > 251 µM
TGI (SR leukemia): > 251 µM
TGI (786-0 renal): > 251 µM
TGI (UO-31 renal): > 251 µM
TGI (UACC-257 melanoma): > 251 µM
TGI (A498 renal): > 251 µM
TGI (A549 NSCLC): > 251 µM

N#C/C(=C\c1ccc(O)c(O)c1)C(=O)NC1CCC(CC2CCC(NC(=O)/C(C#N)=C/c3ccc(O)c(O)c3)CC2)CC1 (configuration not stated)
TGI (K-562 leukemia): 4.93 µM
TGI (LOX IMVI melanoma): 1.22 µM
TGI (MOLT-4 leukemia): > 57.5 µM
TGI (SN12C renal): 7.23 µM
TGI (RPMI-8226 leukemia): > 25.2 µM
TGI (HOP-92 NSCLC): 6.31 µM
TGI (HCT-116 colon): 0.642 µM
TGI (SR leukemia): 3.36 µM
TGI (786-0 renal): 7.37 µM
TGI (CAKI-1 renal): > 29.3 µM
TGI (UO-31 renal): 4.97 µM
TGI (UACC-257 melanoma): > 24.3 µM
TGI (A498 renal): > 100 µM
TGI (A549 NSCLC): 4.56 µM

CC(O)C(N=Cc1nc(-c2ccccc2)oc1O)C(=O)O (configuration not stated)
TGI (K-562 leukemia): > 100 µM
TGI (LOX IMVI melanoma): > 100 µM
TGI (RPMI-8226 leukemia): > 100 µM
TGI (HOP-92 NSCLC): > 100 µM
TGI (HCT-116 colon): > 100 µM
TGI (786-0 renal): > 100 µM
TGI (CAKI-1 renal): > 100 µM
TGI (UO-31 renal): > 100 µM
TGI (UACC-257 melanoma): > 100 µM
TGI (A498 renal): > 100 µM
TGI (A549 NSCLC): > 100 µM

CCCCCCCCOC(CO)CO
TGI (K-562 leukemia): > 100 µM
TGI (LOX IMVI melanoma): > 100 µM
TGI (MOLT-4 leukemia): > 100 µM
TGI (SN12C renal): > 100 µM
TGI (RPMI-8226 leukemia): > 100 µM
TGI (HOP-92 NSCLC): > 100 µM
TGI (HCT-116 colon): > 100 µM
TGI (SR leukemia): > 100 µM
TGI (786-0 renal): > 100 µM
TGI (CAKI-1 renal): > 100 µM
TGI (UO-31 renal): > 100 µM
TGI (UACC-257 melanoma): > 100 µM
TGI (A498 renal): > 100 µM
TGI (A549 NSCLC): > 100 µM

O=C(O)Cc1cccc2c1Oc1ccccc1S2
TGI (K-562 leukemia): > 100 µM
TGI (LOX IMVI melanoma): > 100 µM
TGI (MOLT-4 leukemia): > 100 µM
TGI (SN12C renal): > 100 µM
TGI (RPMI-8226 leukemia): > 100 µM
TGI (HOP-92 NSCLC): > 100 µM
TGI (HCT-116 colon): > 100 µM
TGI (786-0 renal): > 100 µM
TGI (UO-31 renal): > 100 µM
TGI (UACC-257 melanoma): > 100 µM
TGI (A498 renal): > 100 µM
TGI (A549 NSCLC): > 100 µM

CC(=O)C1=C(C)Cn2c(=O)c3ccccc3c(=O)n2C1
TGI (K-562 leukemia): > 100 µM
TGI (LOX IMVI melanoma): > 100 µM
TGI (MOLT-4 leukemia): > 100 µM
TGI (SN12C renal): > 100 µM
TGI (RPMI-8226 leukemia): > 100 µM
TGI (HOP-92 NSCLC): > 100 µM
TGI (HCT-116 colon): > 100 µM
TGI (SR leukemia): > 100 µM
TGI (786-0 renal): > 100 µM
TGI (CAKI-1 renal): > 100 µM
TGI (UO-31 renal): > 100 µM
TGI (UACC-257 melanoma): > 100 µM
TGI (A498 renal): > 100 µM
TGI (A549 NSCLC): > 100 µM
